Results on three compounds are retold here after publication PMC12677607, “Identification of a Pair of Linear or Cyclic Naturally Inspired Bifunctional Lipopeptide Antibiotics That Overcome Antimicrobial Resistance” (Advanced Science, 2025).

Assay [1] has as its system K. pneumoniae CRKP 5452 PhoQL348Q. The experiment in a line: MIC against colistin-resistant mutant. Type of assay: cell-based. Particulars: Figure S127a, colistin-resistant mutant from serial passaging. How it is done: (§1) All MIC assays were performed two independent times (n = 2) in 96‐well plates using a broth micro‐dilution method. The lowest concentration of that inhibited visible microbial growth was recorded as the MIC value.
(§2) For most of bacterial strains, overnight cultures were diluted 5000‐fold in LB broth. For E. faecium and S. aureus, overnight cultures were diluted 1000‐ and 10000‐fold in LB broth, respectively. 100 µL of diluted cells was mixed with 100 µL of LB broth containing each peptide ranging from 64 to 0.125 µg mL^−1 at 2‐fold serial dilutions.
(§3) Overnight cultures S. aureus USA300 were diluted 10000‐fold in LB broth, and 100 µL of dilute cell suspension was added to 96‐well plates containing 100 µL serially diluted aquicidine C4, telomycin, and daptomycin (with 15 mM CaCl2). Overnight cultures K. pneumoniae CRKP5452 were diluted 5000‐fold in LB broth, and 100 µL of dilute cell suspension was added to 96‐well plates containing 100 µL serially diluted aquicidine L and colistin. After an incubation of 24 h at 37 °C, the MIC value was determined. […] The MIC value was recorded as described above, and the process was repeated daily for 21 days. Experiments were performed two independent times (n = 2).
Single‐nucleotide polymorphisms (SNPs) for telomycin‐, daptomycin‐ or colistin‐resistant mutants were identified using SNIPPY by mapping DNBSEQ‐seq reads to the reference genome of S. aureus USA300 or K. pneumoniae CRKP5452.

Assay [2] relates to K. pneumoniae 15580. Nature of the assay: MIC against colistin-resistant strain. Type of assay: cell-based. The note with it: Figure S127a. Here is the method: as §1, §2
The subject of assay [3] is Klebsiella pneumoniae CRKP 5452. The experiment in a line: microbe, parasite or virus in culture. The note with it: Figure S127a, wild type. Type of assay: cell-based. The method in brief:
(§4)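 Growth inhibition read visually; MIC taken as lowest inhibitory concentration. LB medium; inocula from overnight cultures diluted 5000-fold, S. aureus 10000-fold. Peptide range 64 to 0.125 µg mL^−1 (2-fold, pre-mix), two independent determinations.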

In assay [4] the test system is Klebsiella pneumoniae NCTC 5056. The experiment in a line: microbe, parasite or virus in culture. Type of assay: cell-based. The note with it: Figure S127a, colistin-resistant strain. The method in brief: as §4
Assay [5] relates to Klebsiella pneumoniae CRKP HS11286. The experiment in a line: microbe, parasite or virus in culture. Type of assay: cell-based. The note with it: Figure S127a. The procedure, abridged:
as §4

In assay [6] the test system is K. pneumoniae CRKP5452. The experiment in a line: Resistance acquisition by serial passaging. Particulars: K. pneumoniae CRKP5452, sub-MIC levels, daily passage for 21 days, n = 2. Type of assay: cell-based. Here is the method:
as §3

Assay [7] concerns Staphylococcus aureus ATCC 25923. Nature of the assay: microbe, parasite or virus in culture. Particulars: Staphylococcus aureus, ATCC25923, 16 h, read-out: MIC Staphylococcus aureus ATCC 25923. Type of assay: cell-based. The procedure, abridged: as §4
Assay [8] concerns Streptococcus pyogenes ATCC 19615. Nature of the assay: microbe, parasite or virus in culture. Particulars: Streptococcus pyogenes, ATCC19615, 16 h, read-out: MIC Streptococcus pyogenes ATCC 19615. Type of assay: cell-based. The procedure, abridged:
as §4

The test system of assay [9] is Staphylococcus aureus USA300. Nature of the assay: microbe, parasite or virus in culture. Particulars: Staphylococcus aureus, USA300, 16 h, read-out: MIC Staphylococcus aureus USA300. Type of assay: cell-based. The method in brief:
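Broth microdilution in LB, run in two independent repeats. Overnight cultures were diluted 5000-fold, except S. aureus at 10000-fold, and mixed with peptide-containing LB (2-fold series, 64 to 0.125 µg mL^−1 before mixing). MIC is the lowest concentration that prevented visible growth.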

Assay [10] concerns Enterococcus faecalis 26. Nature of the assay: microbe, parasite or virus in culture. Type of assay: cell-based. Particulars: Enterococcus faecalis, 26, 16 h, read-out: MIC Enterococcus faecalis 26. The procedure, abridged: as §4
The test system of assay [11] is Enterococcus faecalis 28. The experiment in a line: microbe, parasite or virus in culture. Particulars: Enterococcus faecalis, 28, 16 h, read-out: MIC Enterococcus faecalis 28. Type of assay: cell-based. The procedure, abridged:
as §4

The test system of assay [12] is Staphylococcus aureus Newman. Nature of the assay: microbe, parasite or virus in culture. Type of assay: cell-based. Particulars: Staphylococcus aureus, NEWMAN, 16 h, read-out: MIC Staphylococcus aureus Newman. The method in brief: as §4
The test system of assay [13] is Streptococcus mutans ATCC 25175. Nature of the assay: microbe, parasite or virus in culture. Particulars: Streptococcus mutans, ATCC25175, 16 h, read-out: MIC Streptococcus mutans ATCC 25175. Type of assay: cell-based. The procedure, abridged: as §4
Assay [14] has as its system Staphylococcus aureus ATCC 6538. Nature of the assay: microbe, parasite or virus in culture. The note with it: Staphylococcus aureus, ATCC6538, 16 h, read-out: MIC Staphylococcus aureus ATCC 6538. Type of assay: cell-based. The procedure, abridged:
as §4

Assay [15] deals with Enterococcus faecium 35682. The experiment in a line: microbe, parasite or virus in culture. Type of assay: cell-based. Particulars: Enterococcus faecium, 35682, 16 h, read-out: MIC Enterococcus faecium 35682. The method in brief:
as §4

The test system of assay [16] is Enterococcus faecalis ATCC 29212. Nature of the assay: microbe, parasite or virus in culture. Type of assay: cell-based. The note with it: Enterococcus faecalis, ATCC29212, 16 h, read-out: MIC Enterococcus faecalis ATCC 29212. The method in brief: as §4
The test system of assay [17] is Mycobacterium smegmatis mc2155. Nature of the assay: microbe, parasite or virus in culture. Particulars: Mycolicibacterium smegmatis, MC2155, read-out: MIC Mycobacterium smegmatis mc2155.
The subject of assay [18] is fungi. The note with it: Figure S20, known peptide; cited from earlier work.

Converted amounts (≈) assume the structure as drawn.

In the case of Colistin [reference compound], the “antibacterial activity (MIC) K. pneumoniae CRKP 5452 PhoQL348Q” value in assay [1] stood at 4 µg/mL. In addition, the “antibacterial activity (MIC) K. pneumoniae 15580” value in assay [2] was more than 64 µg/mL. The “antibacterial activity (MIC) K. pneumoniae CRKP 5452” value in [3] was found to be 0.125 µg/mL. Moreover, the “antibacterial activity (MIC) K. pneumoniae NCTC 5056” value in assay [4] was determined as 32 µg/mL. Further, the “antibacterial activity (MIC) K. pneumoniae CRKP HS11286” value in [5] was 0.125 µg/mL. Also, in assay [6], the “increase of MIC during serial passaging” value was 13.3 fold.
In the case of `CN[C@H](CC(C)C)C(=O)N[C@H]1C(=O)N[C@@H](CC(N)=O)C(=O)N[C@H]2C(=O)N[C@H]3C(=O)N[C@H](C(=O)N[C@H](C(=O)O)c4cc(O)cc(O)c4-c4cc3ccc4O)[C@H](O)c3ccc(c(Cl)c3)Oc3cc2cc(c3O[C@@H]2O[C@H](CO)[C@@H](O)[C@H](O)[C@H]2O[C@H]2C[C@](C)(N)[C@H](O)[C@H](C)O2)Oc2ccc(cc2Cl)[C@H]1O` [Vancomycin, reference compound], the MIC is 1 µg/mL (≈ 0.69 µM) in [7]; 0.5 µg/mL (≈ 0.345 µM) in assay [8]; 1 µg/mL (≈ 0.69 µM) in assay [9]; 1 µg/mL (≈ 0.69 µM) in assay [10]; more than 64 µg/mL in [11]; 0.5 µg/mL (≈ 0.345 µM) in assay [12]. The MIC is 2 µg/mL (≈ 1.38 µM) in assay [13]; 1 µg/mL (≈ 0.69 µM) in assay [14]; more than 64 µg/mL in assay [15]; 2 µg/mL (≈ 1.38 µM) in assay [16]; more than 64 µg/mL in assay [17].
For the compound Keanumycin A, the anti-fungal activity entry in [18] is listed as “Pot ent anti-fungal activity”.
